As a reminder, the IC50 is the concentration needed to halve the response being measured. By IC90 is commonly meant the concentration needed for an effect of 90%. Low values mean greater potency, high ones weaker potency.

This experiment deals with M. tuberculosis H37Rv growth inhibition with meropenem. Kind of experiment: dose response, H37Rv, with and without meropenem (AID 434987).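 Further: growth over 7 days at 37 °C before Alamar Blue read on day 9.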
The mark [1] stands for this setting: M. tuberculosis H37Rv growth inhibition, measured here: IC50 without meropenem.
The mark [2] stands for this setting: M. tuberculosis H37Rv growth inhibition, measured here: IC90 without meropenem.
Setting [3] is: measured here: IC90 with meropenem.

The source made the active and inactive calls. How the calls were made is not given here.

For `CC1CC2(CCCCC2)Nc2ccc3ccccc3c21` (stereo not drawn), the IC50 was 49.1 µM (inactive). Under setting [1], the IC50 is 86.1 µM. In addition, under setting [2], the IC90 is 96 µM. Under setting [3], this compound came in with a concentration for an effect of 90% (IC90) of over 100 µM.

`CCC(=O)c1ccc(OCc2ccc(C(=O)OC)cc2)c(OC)c1`: the IC50 is 27.9 µM. Moreover, the IC50 under setting [1] is over 100 µM. Further, the IC90 under setting [2] is over 100 µM. The IC90 under setting [3] is over 100 µM.

On to `Cc1cccc(C)c1-n1c(C)cc(/C=C2\C(=O)NN(c3ccccc3)C2=O)c1C`, for which the IC50 was > 100 µM (inactive). Under setting [1], this compound came in with an IC50 of over 100 µM. The same compound gave an IC90 under setting [2] of over 100 µM. This compound also came in with an IC90 under setting [3] of over 100 µM.

As for `Cc1c2c(nc3c(C(=O)NC4CCCC4)cnn13)CCCC2`, the IC50 was 73.4 µM (inactive). This compound also came in with an IC50 under setting [1] of over 100 µM. Further, the IC90 under setting [2] was over 100 µM. For the same compound, the concentration for an effect of 90% (IC90) under setting [3] is over 100 µM.

With `CC(=O)c1ccc(NC(=S)Nc2ccc(N3CCOCC3)cc2)cc1`, the IC50 is 21.6 µM. Under setting [1], this compound gave an IC50 of over 100 µM. Under setting [2], this compound yielded an IC90 of over 100 µM. The IC90 under setting [3] was over 100 µM.

Take `CC/C(=N\NC(=O)c1ccc(N(C)C)cc1)c1ccccc1`: the IC50 was > 100 µM (inactive). Also, the 50% inhibitory concentration (IC50) under setting [1] was over 100 µM. This compound displayed an IC90 under setting [2] of over 100 µM. Moreover, the IC90 under setting [3] was over 100 µM.

Take `O=C1CC(Nc2ccc(N3CCOCC3)cc2)C(=O)N1C1CCCCC1` (stereo not drawn): the IC50 is > 100 µM (inactive). Under setting [1], this compound gave an IC50 of over 100 µM. Further, the IC90 under setting [2] was over 100 µM. Moreover, under setting [3], the IC90 is over 100 µM.

With `N#C/C(=C(/O)COC(=O)CCc1ccc(S(=O)(=O)N2CCOCC2)cc1)c1nc2ccccc2[nH]1`, the IC50 was 46.4 µM (inactive). The same compound showed an IC50 under setting [1] of over 100 µM. The same compound yielded a concentration for an effect of 90% (IC90) under setting [2] of over 100 µM. In addition, the IC90 under setting [3] was over 100 µM.

For `CCC(CC)c1nnc(NC(=O)c2ccc(N3CCCCC3)c([N+](=O)[O-])c2)s1`, the half-maximal inhibitory concentration (IC50) is 9.31 µM. Under setting [1], this compound displayed an IC50 of 75.9 µM. In addition, the concentration for an effect of 90% (IC90) under setting [2] was over 100 µM. Under setting [3], the IC90 was determined as 44 µM.

As for `O=C1COc2ccc(C(=O)/C=C/c3ccccc3)cc2N1`, the IC50 was 9.75 µM. In addition, under setting [1], the IC50 is 25.6 µM. Further, the IC90 under setting [2] is over 50 µM. This compound gave an IC90 under setting [3] of 12.2 µM.

On to `CCOc1cccc(/C=N/Nc2nc(N3CCCC3)nc(N3CCCC3)n2)c1O`, for which the IC50 was 90.8 µM (inactive). The compound also displayed a 50% inhibitory concentration (IC50) under setting [1] of over 100 µM. This compound also returned an IC90 under setting [2] of over 100 µM. The IC90 under setting [3] is over 100 µM.

With `Cc1nnnn1/C(=C\c1ccccc1)C(=O)OCC(=O)Nc1ccc(Cl)cc1F`, the IC50 is 17 µM (inactive). This compound yielded an IC50 under setting [1] of 26.7 µM. The compound also displayed an IC90 under setting [2] of 35.8 µM. This compound also yielded an IC90 under setting [3] of 25.5 µM.

Take `NS(=O)(=O)c1ccc(O)c(NC(=O)c2ccc([N+](=O)[O-])o2)c1`: the IC50 is 12.7 µM (inactive). For the same compound, under setting [1], the half-inhibitory concentration (IC50) was 27.2 µM. For the same compound, the IC90 under setting [2] was over 100 µM. Further, under setting [3], the IC90 was over 100 µM.

On to `O=c1[nH]c(CN(CCO)CCO)nc2c1C1(CCCCC1)Cc1ccccc1-2`, for which the IC50 is 19.6 µM. The IC50 under setting [1] was over 100 µM. Under setting [2], this compound returned a 90% effect concentration (IC90) of over 100 µM. In addition, under setting [3], the IC90 is over 100 µM.

On to `CCC(CC)c1nnc(NC(=O)c2cc(-c3ccccc3)nc3ccccc23)s1`, for which the IC50 is > 100 µM (inactive). The compound further returned an IC50 under setting [1] of over 100 µM. The compound also showed an IC90 under setting [2] of over 100 µM. The IC90 under setting [3] is over 100 µM.

`CCn1c(=O)c2cc(C(=O)N(C)c3ccccc3F)sc2c2ccccc21`: the IC50 is 29.2 µM. The compound also displayed an IC50 under setting [1] of over 100 µM. This compound displayed an IC90 under setting [2] of over 100 µM. Further, the IC90 under setting [3] is over 100 µM.

As to `CC1CN(C(=S)NC(=O)c2cccc([N+](=O)[O-])c2)CC(C)O1` (stereo not drawn), the IC50 was 11.8 µM. The compound further yielded an IC50 under setting [1] of 42.3 µM. Under setting [2], the IC90 was over 100 µM. Further, the IC90 under setting [3] was over 100 µM.

As to `Cc1cc(C)c(-c2c(O)c3ccccc3n(C)c2=O)c(C)c1`, the IC50 was 9.29 µM. The same compound had a concentration for half-maximal inhibition (IC50) under setting [1] of 48.8 µM. For the same compound, the IC90 under setting [2] was over 100 µM. The same compound displayed an IC90 under setting [3] of 42.2 µM.

For `COc1ccc(/C=C2\N=C(SC)N(c3ccccc3OC)C2=O)cc1`, the IC50 is 18.1 µM. In addition, under setting [1], the IC50 was over 100 µM. In addition, the IC90 under setting [2] is over 100 µM. Moreover, the IC90 under setting [3] was over 25 µM.

Turning to `Cc1ccc(-c2nc3ccccc3o2)cc1NC(=S)NC(=O)/C=C/c1ccco1`, the IC50 was 65.8 µM (inactive). In addition, under setting [1], the IC50 was over 100 µM. The IC90 under setting [2] was over 100 µM. Also, under setting [3], the IC90 was over 100 µM.

In the case of `COc1cc(NC(=S)NC(=O)c2cccs2)ccc1NC(=O)C(C)C`, the IC50 is > 100 µM (inactive). Under setting [1], this compound showed an IC50 of over 100 µM. This compound returned an IC90 under setting [2] of over 100 µM. For the same compound, the concentration for an effect of 90% (IC90) under setting [3] is over 100 µM.

Regarding `CC(=O)n1cc([C@@H]2C=C(C(=O)N3CCN(Cc4ccc5c(c4)OCO5)CC3)O[C@H](OCCCCO)C2)c2ccccc21`, the IC50 was > 100 µM (inactive). This compound had an IC50 under setting [1] of 84 µM. In addition, the IC90 under setting [2] is over 100 µM. This compound yielded an IC90 under setting [3] of over 100 µM.

The record behind these values is PubChem BioAssay AID434987 (Southern Research Specialized Biocontainment Screening …, 2010).
